Results: patent EP1200395B1, “UREA DERIVATIVES AS INHIBITORS OF CCR-3 RECEPTOR” (KIRIN BEER KABUSHIKI KAISHA, priority 1999, dated 2001)

Biological target: T1, CCR-3 (Homo sapiens, UniProt P51677)
T1 sequence (P51677 1-355): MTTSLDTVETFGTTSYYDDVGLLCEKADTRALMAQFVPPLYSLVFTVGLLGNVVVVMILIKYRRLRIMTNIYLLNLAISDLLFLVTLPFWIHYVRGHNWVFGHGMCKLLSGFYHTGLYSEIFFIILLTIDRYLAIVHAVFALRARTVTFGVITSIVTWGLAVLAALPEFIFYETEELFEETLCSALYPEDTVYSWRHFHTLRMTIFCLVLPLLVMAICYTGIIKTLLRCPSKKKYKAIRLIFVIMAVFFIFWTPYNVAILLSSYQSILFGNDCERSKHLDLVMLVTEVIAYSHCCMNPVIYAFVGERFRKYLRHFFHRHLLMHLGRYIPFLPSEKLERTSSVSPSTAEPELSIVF
Assay: Eotaxin-induced chemotaxis of CCR-3 transfectant cells (CCR3/U937)
Assay type: cell-based
Set-up: expressed in transfected cells; host or cells: U937
Details: 10 µM test compound; eotaxin 1 x 10^-9 M; CCR3/U937 cells (Table 3a)
Procedure: The inhibitory activity of the compounds against eotaxin-induced chemotaxis was determined by measuring the inhibition of migration of CCR-3 transfectant cells (CCR3/U937), using a minor modification of the method described by Ohashi, H. et al., Int Arch Allergy Immunol. […] The chemotaxis assay was performed in a 24-well culture plate. Human eotaxin suspended in assay medium was added to the wells at 1 x 10^-9 M along with test compounds at various concentrations. For a positive control, eotaxin was added to the wells without a test compound, and for a negative control, neither eotaxin nor a test compound was added to the wells. Chemotaxicell (Kurabo Co., Ltd.) having 5 micrometers pore size were inserted into each well and 100 micro liters of CCR-3 transfectant cells suspension were added to the top chamber. The plates were incubated at 37 °C for 1 hour. After incubation, migrated cells in lower wells were diluted and counted by particle size distribution analyzer (CDP-500, Sysmex Co., Ltd.).

Chemotaxis Assay 10 µM (inhibition %) | Structure (SMILES)
44% | O=C(O)CCCN(CCCNC(=O)Nc1ccc(Br)cc1)CCC(c1ccccc1)c1ccccc1 [Compound 76]
76% | CC(c1ccccc1)N(CCCNC(=O)Nc1ccc(Br)cc1)CCCC(=O)O (stereo not drawn) [Compound 77]
78% | O=C(O)CCCN(CCCNC(=O)Nc1ccc(Br)cc1)CCc1ccc(Cl)cc1 [Compound 79]
65% | O=C(O)CCCN(CCCNC(=O)Nc1ccccc1)CCc1ccc(Cl)cc1 [Compound 80]
100% | O=C(O)CCCN(CCCNC(=O)Nc1cccc(Cl)c1)C1CCCc2ccccc21 (stereo not drawn) [Compound 82]
100% | Cc1cccc(NC(=O)NCCCN(CCCC(=O)O)C2CCCc3ccccc32)c1 (stereo not drawn) [Compound 83]
100% | O=C(O)CCCN(CCCNC(=O)Nc1ccc(Cl)c(C(F)(F)F)c1)C1CCCc2ccccc21 (stereo not drawn) [Compound 84]
19% | O=C(O)CCCN(CCCNC(=O)Nc1ccccc1-c1ccccc1)C1CCCc2ccccc21 (stereo not drawn) [Compound 85]
37% | COc1ccc(NC(=O)NCCCN(CCCC(=O)O)C2CCCc3ccccc32)c(OC)c1 (stereo not drawn) [Compound 86]
97% | O=C(O)CCCN(CCCNC(=O)Nc1ccccc1)C1CCCc2ccccc21 (stereo not drawn) [Compound 87]
100% | COc1ccc(NC(=O)NCCCN(CCCC(=O)O)C2CCCc3ccccc32)cc1 (stereo not drawn) [Compound 88]
89% | O=C(O)CCCN(CCCNC(=O)Nc1ccc(Oc2ccccc2)cc1)C1CCCc2ccccc21 (stereo not drawn) [Compound 89]
100% | O=C(O)CCCN(CCCNC(=O)Nc1cccc2ccccc12)C1CCCc2ccccc21 (stereo not drawn) [Compound 90]
100% | COC(=O)CCCN(CCCNC(=O)Nc1ccc(Br)cc1)C1CCc2ccccc21 (stereo not drawn) [Compound 172, Methyl 4-[[3-(4-bromophenylureido)propyl](1-indanyl)amino]burylate]
100% | O=C(O)CCCN(CCCNC(=O)Nc1ccc(Br)cc1)C1CCc2ccccc21 (stereo not drawn) [Compound 173, 4-[[3-(4-Bromopbenylureido)propyl](1-indanyl)amino]butanoic acid]
100% | COC(=O)CCCN(CCCNC(=O)Nc1ccc(Br)cc1)C1Cc2ccccc2C1 [Compound 174]
100% | O=C(O)CCCN(CCCNC(=O)Nc1ccc(Br)cc1)C1Cc2ccccc2C1 [Compound 175]
75% | COC(=O)CCCN(CCCNC(=O)Nc1ccc(Br)cc1)C1CCc2ccccc21 (stereo not drawn) [Compound 176]
89% | O=C(O)CCCN(CCCNC(=O)Nc1ccc(Br)cc1)C1CCc2ccccc21 (stereo not drawn) [Compound 177]
100% | COC(=O)CCCN(CCCNC(=O)Nc1ccc(Br)cc1)[C@@H]1CCc2ccccc21 [Compound 178, Methyl 4-[[3-(4-bromophenylureido)propyl][(1R)-1-indanyl]amino]butylate]
100% | COC(=O)CCCN(CCCNC(=O)Nc1ccc(Br)cc1)[C@@H]1CCCc2ccccc21 [Compound 180, Methyl 4-[[3-(4-bromophenylureido)propyl][(1R)-1,2,3,4-tetrahydro-1-naphthyl]amino]burylate]

Same assay, conditions: U-937; 10 µM test compound; eotaxin 1 x 10^-9 M; CCR3/U937 cells (Table 3a)

inhibition at 10 µM | Structure (SMILES)
100% | O=C(O)CCCN(CCCNC(=O)Nc1ccc(Cl)cc1)C1CCCc2ccccc21 (stereo not drawn) [Compound 171, 4-[[3-(4-Chlorophenylureido)propyl](1,2,3,4-tetrahydro-1-naphthyl)amino]butanoic acid]
100% | O=C(O)CCCN(CCCNC(=O)Nc1ccc(Br)cc1)[C@@H]1CCc2ccccc21 [Compound 179, 4-[[3-(4-Bromophenylureido)propyl][(1R)-1-indanyl]amino]butanoic acid]
100% | O=C(O)CCCN(CCCNC(=O)Nc1ccc(Br)cc1)[C@@H]1CCCc2ccccc21 [Compound 181, 4-[[3-(4-Bromophenylureido)propyl][(1R)-1,2,3,4-tetrahydro-1-naphthyl]amino]butanoic acid]
